Measurements from PMC9623576, “Semisynthesis and Evaluation of Anti-Inflammatory Activity of the Cassane-Type Diterpenoid Taepeenin F and of Some Synthetic Intermediates” (Journal of Natural Products, 2022).
Several values for one entry are separate records, joined by “and”; a condition that tells them apart may be missing. Identical values can stand only once.

How the values were obtained:
Type in all cases: cell-based
[1] = system: NO production in LPS-activated RAW 264.7 macrophage murine cells; assay: Inhibition of NO (nitrite) release, Griess reaction
Protocol: The concentrations of nitrites were determined by the Griess reaction.
(§1) A stock solution was frozen and stored at […]. Before the experiments, this solution was diluted in cell-culture medium to the adequate concentrations for each experiment. […] For nitrite assay, subcytotoxic concentrations (3/4IC50, 1/2IC50, and 1/4IC50), were used to ensure that the NO inhibitory potential was not due to a possible cytotoxic effect. The concentrations of 3/4IC50, 1/2IC50, and 1/4IC50 were used for the cell-cycle analysis. All experiments were measured and compared with control (untreated cells after 24, 48, or 72 h of treatment.)
Nitrites production was analyzed through the Griess reaction. This nitrite concentration was used as an indicator of NO production.[35] Briefly, RAW 264.7 cells were plated at 6 × 10^3 cells/well in 24-well cell culture plates and supplemented with 10 μg/mL of lipopolysaccharide (LPS). […] The supernatants were collected at 48 and 72 h, to determine their nitrite concentrations and/or stored at −80 °C for further use.
The Griess reaction was performed taking 150 μL of supernatant test samples or sodium nitrite standard (0–120 μM) and mixed with 25 μL of Griess reagent A (0.1% N,N-(1-naphthyl) ethylenediaminedihydrochloride) and 25 μL of Griess reagent B (1% sulfanilamide in 5% of phosphoric acid), in a 96-well plate. After 15 min of incubation at room temperature, the absorbance was measured at 540 nm in an ELISA plate reader (Tecan Sunrise MR20–301, TECAN, Austria). The absorbance was referred to a nitrite standard curve to determine the concentration of nitrite in the supernatant of each experimental sample. The percentage of NO production was determined, assigning 100% at the increase between negative control (untreated cells) and positive control (cells only treated with 10 μg/mL of LPS).

[2] = system: RAW 264.7 monocyte/macrophage murine cells; assay: MTT growth inhibition on RAW 264.7 cells; details: Mus musculus, RAW264.7, RAW 264.7, MTT; for IC20: 20% growth inhibition; for IC80: 80% growth inhibition
Protocol: as §1
In all experiments, monolayer cells were grown to 80–90% confluence, in sterile cell culture flasks. All cell lines used were purchased from the cell bank of the University of Granada, Spain.
The cytotoxicity assay was performed by the MTT (3-(4,5-dimethylthiazol-2-yl)-2,5-diphenyltetrazolium bromide) method.[21] […] All tested compounds were prepared in fresh growth medium. After 24 h, an additional 100 μL of medium with the corresponding concentrations of products (only medium in the control wells) was added to the corresponding wells, at various final concentrations (0–100 μg/mL). […] After 1.5 h of incubation, formazan was resuspended in 100 μL of DMSO, and each concentration was tested in triplicate.
Cytotoxicity experimental data were fitted to a sigmoidal function (y = ymax/(x/a)^−b) by nonlinear regression. […] Similar analyses were performed to obtain the IC50 of NO production. All data shown here are representative of at least two independent experiments performed in triplicate. All quantitative data were summarized as the mean ± standard deviation (SD).

[3] = system: B16-F10 murine melanoma cells; assay: MTT cancer cell proliferation assay, B16-F10; details: Mus musculus, B16-F10, 72 h, MTT; for IC50: read-out: IC50; for IC20: read-out: IC20
Protocol: The five newly synthesized diterpenoids were evaluated for their cytotoxic effects against three selected tumor cell lines, B16-F10 murine melanoma cells, HT29 human colon adenocarcinoma cells, and HepG2 human hepatocarcinoma cells at increasing concentrations (0–100 μg/mL). After 72 h of treatment, cell viability was determined by an MTT assay, where the tetrazolium dye was transformed into formazan in the mitochondria of viable cells, its absorbance measured at 570 nm and expressed as a percentage with respect to untreated control cells (S3 Figure.). The concentrations required for 20, 50, and for 80% growth inhibition (IC20, IC50, and IC80) were also determined for each compound (Table 2).
as §1
Human colorectal adenocarcinoma cell line HT29 (ECACC no. 9172201; ATCC no. HTB-38), human hepatocarcinome cell line HepG2 (ECACC no. 85011430), mouse melanoma cells B16-F10 (ATCC no. CRL-6475), and murine monocyte/macrophage-like RAW 264.7 cell line (ATCC no, TIB-71) were cultured in DMEM (Dulbecco’s modified Eagle’s medium) supplemented with 2 mM glutamine, 10% heat-inactivated FCS (fetal calf serum), 10 000 units/mL of penicillin and 10 mg/mL of streptomycin, (for all cancer cell lines), 50 μg/mL of gentamicin (only for RAW 264.7 cell line), and incubated at 37 °C, in an atmosphere of 5% CO2 and 95% humidity. The culture media were changed every 48 h, and the confluent cultures were separated with a trypsin solution (0.25% EDTA). In all experiments, monolayer cells were grown to 80–90% confluence, in sterile cell culture flasks. All cell lines used were purchased from the cell bank of the University of Granada, Spain.
The cytotoxicity assay was performed by the MTT (3-(4,5-dimethylthiazol-2-yl)-2,5-diphenyltetrazolium bromide) method.[21] To quantify the cytotoxicity of compounds, the fresh and suspended cells were seeded in 96-well plates to a volume of 100 μL at 6.0 × 10^3 cells/mL for HT29 and RAW 264.7 cell lines, at 5.0 × 10^3 cells/mL for B16-F10 cells and 15.0 × 10^3 for Hep G2. Then, cells were incubated to adhere over 24 h at 37 °C with 5% CO2. All tested compounds were prepared in fresh growth medium. After 24 h, an additional 100 μL of medium with the corresponding concentrations of products (only medium in the control wells) was added to the corresponding wells, at various final concentrations (0–100 μg/mL). Finally, after 72 h of incubation at 37 °C with 5% CO2, the medium with the compounds were removed and 100 μL of MTT solution (0.5 mg/mL) in 50% of PBS 50% of medium was added to each well. After 1.5 h of incubation, formazan was resuspended in 100 μL of DMSO, and each concentration was tested in triplicate. Relative cell viability, with respect to untreated control cells, was measured by absorbance at 570 nm on an ELISA plate reader (Tecan Sunrise MR20-301, TECAN, Austria).
Cytotoxicity experimental data were fitted to a sigmoidal function (y = ymax/(x/a)^−b) by nonlinear regression. […] These analyses were performed using SigmaPlot 12.5 software. Similar analyses were performed to obtain the IC50 of NO production. All data shown here are representative of at least two independent experiments performed in triplicate. All quantitative data were summarized as the mean ± standard deviation (SD).

SMILES | inhibition of NO release ([1]; 48 h, 1/2IC50 concentration) [%] | inhibition of NO release ([1]; 48 h, 3/4IC50 concentration) | inhibition of NO release ([1]; 72 h, 3/4IC50 concentration) [%] | IC50 [2] [µM] | IC20 [2] [µM] | IC80 [2] [µM] | IC50 [3] [µM] | IC80 [3] [µM] | IC20 [3] [µM]
COC(=O)[C@]1(C)CCC[C@@]2(C)[C@H]1CC=C1C(C)=C(C(C)C)C(=O)C[C@@H]12 [Compound 16, (1R,4aR,10aR)-Methyl 7-isopropyl-1,4a,8-trimethyl-6-oxo-1,2,3,4,4a,4b,5,6,10,10a-decahydrophenanthrene-1-carboxylate] | 59.95 | 85.13% | 80 | 33.1 ± 3.62 | 30.1 ± 0.49 | 33.81 ± 0.08 | 22.2 ± 1.16 | 35.8 ± 3.35 | 14.2 ± 0.19
COC(=O)[C@]1(C)CCC[C@]2(C)c3cc(O)c(C=O)c(C)c3CC[C@@H]12 [Compound 21, (1R,4aS,10aR)-Methyl 7-formyl-6-hydroxy-1,4a,8-trimethyl-1,2,3,4,4a,9,10,10a-octahydrophenanthrene-1-carboxylate] |  | 76.49% and 76% | 91 | 21.1 ± 0.96 | 17.8 ± 1.34 | 25.3 ± 0.58 | 7.72 ± 3.92 | 20.1 ± 7.72 | 3.18 ± 2.3
